{"source": "patent US5298523A", "about": "“Method for treating transplant patients using mycalamide compounds” (priority 1992, dated 1994)", "key": {"murine CD4^+ T cells": {"system": "murine CD4^+ T cells", "assay": "Activation of CD4+ T cells by anti-CD3 mAb/mB7", "assay_type": "cell-based, murine (BALB/c)", "method": "(A) Costimulation of T cells with anti-CD3 mAb and mB7. […] (B) Costimulation of T cells with mB7 and PMA. […] All cultures were incubated for 48 hours and pulsed with 1 μCi [ ^3 H] thymidine/well for the last 6 hours of the incubation period to assay for T cell proliferation.\n(§1) (A) Costimulation of T cells with anti-CD3 mAb and mB7. 2×10^5 purified BALB/c CD4^+ T lymphocytes were stimulated with the indicated concentrations of anti-CD3 mAb in the presence of medium (.largecircle.), 2×10^4 paraformaldehyde-fixed CHO-mB7 cells (.quadrature.), or 2×10^4 paraformaldehyde-fixed CHO-mB7 cells in the presence of 0.1 nM FK506 (.gradient.), 1 nM FK506 (Δ), or 10 nM FK506 ( ). (B) Costimulation of T cells with mB7 and PMA. 2×10^5 purified BALB/c CD4^+ T lymphocytes were stimulated with the indicated concentrations of PMA and either medium (.largecircle.), 2×10^4 paraformaldehyde-fixed CHO-mB7 cells (.quadrature.), or paraformaldehyde-fixed CHO-mB7 cells in the presence of 0.1 nM FK506 (.gradient.), 1 nM FK506 (Δ), or 10 nM FK506 ( ). All cultures were incubated for 48 hours and pulsed with 1 μCi [^3 H] thymidine/well for the last 6 hours of the incubation period to assay for T cell proliferation.\nas §1, with “pM mycalamide A” for “nM FK506”\nmB7-mediated activation of murine CD4^+ T cells. Mouse T cells were purified as follows: splenocytes were depleted of red blood cells by treatment with Tris-NH4 Cl. T cells were enriched by nylon wool fractionation. CD4^+ T cells from BALB/c mice were purified by two-fold treatment with a mixture of anti-MHC Class II and anti-CD8 monoclonal antibodies and rabbit complement. Chinese hamster ovary cells (CHO) and CHO cells transfected with the murine B7 molecule (CHOmB7) were fixed with 1% paraformaldehyde prior to addition to the cultures. Microcultures were set up in duplicate 96-well plates. […] All cultures were incubated for 48 hours and pulsed with 1 μCi ^3 H-thymidine/well for the last 6 hours of the incubation period to assay for T cell proliferation."}, "[1]": {"assay": "Lymphocyte viability assay (LCV, MTT) on human PBL", "assay_type": "cell-based", "conditions": "for viability: human MLR, MTT", "method": "Preparation of human peripheral blood leukocyte (PBL) suspensions. Human peripheral blood suspensions were prepared from Leukotrap blood filters as follows: Leukotrap filters containing processed leukocytes from random, unrelated blood donors were obtained from the Indian River Blood Bank (Vero Beach, Fla.). Buffy-coat blood cell suspensions were recovered by reverse-flow phosphate-buffered saline purging and centrifugation for 15 minutes at 475× g. Buffy coats were removed, and 5 ml of the suspension was layered onto 5 ml of Histopaque gradient material. The Histopaque gradients were centrifuged at 475× g for 30 minutes. Lymphocytes were removed from the Histopaque-medium interface, and washed twice with 10 ml of PBS (Dulbecco's phosphate-buffered saline without CaCl2 and MgCl2.6H2 O). The final cell pellet was resuspended in TCM, and the cell concentration adjusted to 2×10^6 cells/ml.\nDetermination of mycalamide A toxicity. The toxicity of mycalamide A on murine splenocytes and human PBL was determined using a colorimetric assay, based on the ability of viable cells to convert the colorless tetrazolium salt, 3-(4,5-dimethylthiazol-2yl)-2,5-diphenyl tetrazolium bromide (MTT) to a colored formazan product and trypan blue exclusion. For the colorimetric assay, a volume of 0.075 ml of an MTT solution (550 μg/ml of MTT in TCM) was added to test and control wells containing one of the populations of splenocytes or test wells and incubated for 5-6 hours following the initial incubation period. Microtiter plates were centrifuged at 100× g, supernatants carefully removed, and a volume of 0.20 ml of isopropyl alcohol was added to each well to dissolve the formazan crystals. The absorbance at 570 nm was determined for each well using an ELISA plate reader. […] As an additional parameter of toxicity, wells containing cultured lymphocytes with various dilutions of mycalamide A were examined with trypan blue, and the percentage of dye-excluding (viable) cells was determined."}, "murine splenocytes": {"system": "murine splenocytes", "assay": "Mitogen-induced proliferation of murine splenocytes", "assay_type": "cell-based", "conditions": "for activity at 0.5 µg/mL / activity at 0.05 µg/mL / activity at 0.005 µg/mL / activity at 0.0005 µg/mL / activity at 50 pg/mL: Mus musculus, Splenocyte; for activity at 0.5 µg/mL: 5.0 × 10^-1 μg/ml; for activity at 0.05 µg/mL: 5.0 × 10^-2 μg/ml; for activity at 0.005 µg/mL: 5.0 × 10^-3 μg/ml; for activity at 0.0005 µg/mL: 5.0 × 10^-4 μg/ml; for activity at 50 pg/mL: 5.0 × 10^-5 μg/ml", "method": "Preparation of splenocyte cell suspensions. […] The resulting supernatant was then transferred to another sterile centrifuge tube, and the cell concentration adjusted to 2×10^6 cells/ml dilution with TCM.\nMitogen studies. The effects of mycalamide A on the mitogen-induced proliferation of murine splenocytes was investigated. Splenocytes (2×10^5 /well) from C57BL/6J or BALB/c mice were incubated with 1.0 μg/ml of Con A, 10 μg/ml of phytohemagglutinin (PHA), lipopolysaccharide (LPS) or pokeweed mitogen (PWM) and various concentrations of mycalamide A at 37° C. in a 5% CO2, humidified atmosphere for 90 hours. A volume of […] of a 20.0 μCi/ml of ^3 H-thymidine was added to each well, and the plates incubated for an additional 6 hours. Plates were harvested, and ^3 H-thymidine incorporation determined by counting samples in a liquid scintillation counter."}, "[2]": {"conditions": "Con A, read-out: Con A, % of control"}, "[3]": {"conditions": "LPS, read-out: LPS, % of control"}, "[4]": {"conditions": "PHA, read-out: PHA, % of control"}, "[5]": {"conditions": "PWM, read-out: PWM, % of control"}}, "note": "Where two headings read alike, the source gives them in different places.", "data": [{"smiles": "C=C1CC(OC)(C(O)C(=O)NC2OCOC3C2OC(CC(O)CO)C(C)(C)C3OC)OC(C)C1C", "note": "(stereo not drawn) [Mycalamide A, mycalamide A]", "values": [{"measurement": "effect on anti-CD3/mB7 activation of CD4+ cells", "setting": "murine CD4^+ T cells; anti-CD3/mB7, in words", "value": "blocks activation"}, {"measurement": "times more potent than FK506", "setting": "murine CD4^+ T cells; immunosuppressive activity vs FK506", "value": 10, "unit": "times"}, {"measurement": "times more potent than cyclosporin A", "setting": "murine CD4^+ T cells; immunosuppressive activity vs cyclosporin A", "value": "approximately 1000 times"}, {"measurement": "suppressive activity compared with FK506 or CsA", "setting": "murine CD4^+ T cells; in words", "value": "superior to FK506 or CsA"}, {"measurement": "viability", "setting": "[1]; 5.0 × 10^-1 μg/ml", "value": 42, "unit": "%"}, {"measurement": "viability", "setting": "[1]; 5.0 × 10^-2 μg/ml", "value": 52, "unit": "%"}, {"measurement": "viability", "setting": "[1]; 5.0 × 10^-3 μg/ml", "value": 46, "unit": "%"}, {"measurement": "viability", "setting": "[1]; 5.0 × 10^-4 μg/ml", "value": 128, "unit": "%"}, {"measurement": "viability", "setting": "[1]; 5.0 × 10^-5 μg/ml", "value": 111, "unit": "%"}, {"measurement": "viability", "setting": "[1]; 5.0 × 10^-6 μg/ml", "value": 114, "unit": "%"}, {"measurement": "viability", "setting": "[1]; 5.0 × 10^-7 μg/ml", "value": 116, "unit": "%"}, {"measurement": "CC50", "setting": "[1]; read-out: TC50 (LCV)", "value": 0.083, "unit": "µg/mL"}, {"measurement": "suppression of Con A, LPS, and PWM stimulation", "setting": "murine splenocytes; 5×10^-5 μg/ml, Con A, LPS, PWM, in words", "value": "suppressed"}, {"measurement": "activity at 0.5 µg/mL", "setting": "murine splenocytes; [2]", "value": 0, "unit": "%"}, {"measurement": "activity at 0.05 µg/mL", "setting": "murine splenocytes; [2]", "value": 0, "unit": "%"}, {"measurement": "activity at 0.005 µg/mL", "setting": "murine splenocytes; [2]", "value": 0, "unit": "%"}, {"measurement": "activity at 0.0005 µg/mL", "setting": "murine splenocytes; [2]", "value": 0, "unit": "%"}, {"measurement": "activity at 50 pg/mL", "setting": "murine splenocytes; [2]", "value": 0, "unit": "%"}, {"measurement": "activity at 0.5 µg/mL", "setting": "murine splenocytes; [3]", "value": 0, "unit": "%"}, {"measurement": "activity at 0.05 µg/mL", "setting": "murine splenocytes; [3]", "value": 0, "unit": "%"}, {"measurement": "activity at 0.005 µg/mL", "setting": "murine splenocytes; [3]", "value": 0, "unit": "%"}, {"measurement": "activity at 0.0005 µg/mL", "setting": "murine splenocytes; [3]", "value": 0, "unit": "%"}, {"measurement": "activity at 50 pg/mL", "setting": "murine splenocytes; [3]", "value": 68, "unit": "%"}, {"measurement": "activity at 0.5 µg/mL", "setting": "murine splenocytes; [4]", "value": 0, "unit": "%"}, {"measurement": "activity at 0.05 µg/mL", "setting": "murine splenocytes; [4]", "value": 0, "unit": "%"}, {"measurement": "activity at 0.005 µg/mL", "setting": "murine splenocytes; [4]", "value": 0, "unit": "%"}, {"measurement": "activity at 0.0005 µg/mL", "setting": "murine splenocytes; [4]", "value": 38, "unit": "%"}, {"measurement": "activity at 50 pg/mL", "setting": "murine splenocytes; [4]", "value": 139, "unit": "%"}, {"measurement": "activity at 0.5 µg/mL", "setting": "murine splenocytes; [5]", "value": 0, "unit": "%"}, {"measurement": "activity at 0.05 µg/mL", "setting": "murine splenocytes; [5]", "value": 0, "unit": "%"}, {"measurement": "activity at 0.005 µg/mL", "setting": "murine splenocytes; [5]", "value": 0, "unit": "%"}, {"measurement": "activity at 0.0005 µg/mL", "setting": "murine splenocytes; [5]", "value": 0, "unit": "%"}, {"measurement": "activity at 50 pg/mL", "setting": "murine splenocytes; [5]", "value": 62, "unit": "%"}]}]}
